For assay [1], the system named is A-549 (human lung carcinoma). The assay can be described thus: [3H] thymidine uptake cell proliferation assay, A549. The class given is cell-based.
The test system of assay [2] is PC3 (human prostate carcinoma). The assay can be described thus: [3H] thymidine uptake cell proliferation assay, PC3. The conditions noted are these: PC-3, read-out: Cell Proliferation Effects (IC50 (nM)). The format is cell-based.

Data on one compound can be found in patent US7196083B2, “Heteropolycyclic inhibitors of protein kinases” (priority 2000, dated 2007).

pIC50: −log10 of the molar value. Read-outs that look alike come from different tables or passages of the source.

As for `O=C1c2ccccc2-c2nc3nnnn3nc21` [KP-23172], the pIC50 in assay [1] (A459 cells, read-out: Cell Proliferation in A459 IC50 in nm) was 7.10. Moreover, the IC50 in assay [1] (A549, read-out: Cell Proliferation Effects (IC50 (nM))) amounted to 80 nM; in assay [2], 250 nM.
